Measured values: ChEMBL document CHEMBL6083260, “Dizocilpine derivatives as neuroprotective NMDA receptor antagonists without psychomimetic side effects” (Eur J Med Chem, 2024)
The source made the active and inactive calls. The rule behind the calls is not given here.

What was measured:
[1] = target: T1, Glutamate NMDA receptor; GRIN1/GRIN2B (Homo sapiens, UniProt Q05586+Q13224); test: Antagonist activity at human GluN1/GluN2B receptor expressed in HEK293 cells assessed as inhibition of L-glutamate induced response at 3 uM at -60 mV membrane potential by patch clamp electrophysiology analysis; type: cell-based
[2] = target: T2, Glutamate NMDA receptor; GRIN1/GRIN2A (Homo sapiens, UniProt Q05586+Q12879); test: Antagonist activity at human GluN1/GluN2A receptor expressed in HEK293 cells assessed as inhibition of L-glutamate induced response at 3 uM at -60 mV membrane potential by patch clamp electrophysiology analysis; type: cell-based
[3] = Cytotoxicity against CHO-K1 cells assessed as reduction in cell viability incubated for 24 hrs by MTT assay; type: toxicity, cell-based; settings: Chinese hamster (Cricetulus griseus)
[4] = target: T1, Glutamate NMDA receptor; GRIN1/GRIN2B; test: Antagonist activity at human GluN1/GluN2B receptor expressed in HEK293 cells assessed as inhibition of L-glutamate induced response at -60 mV membrane potential by patch clamp electrophysiology analysis; type: cell-based
[5] = target: T2, Glutamate NMDA receptor; GRIN1/GRIN2A; test: Antagonist activity at human GluN1/GluN2A receptor expressed in HEK293 cells assessed as inhibition of L-glutamate induced response at -60 mV membrane potential by patch clamp electrophysiology analysis; type: cell-based
[6] = target: T2, Glutamate NMDA receptor; GRIN1/GRIN2A; test: Antagonist activity at human GluN1/GluN2A receptor expressed in HEK293 cells assessed as inhibition of L-glutamate induced response at -40 mV membrane potential by patch clamp electrophysiology analysis; type: cell-based
[7] = target: T1, Glutamate NMDA receptor; GRIN1/GRIN2B; test: Antagonist activity at human GluN1/GluN2B receptor expressed in HEK293 cells assessed as inhibition of L-glutamate induced response at -40 mV membrane potential by patch clamp electrophysiology analysis; type: cell-based
[8] = Toxicity in male Wistar rat assessed as decrease respiration at 20 mg/kg, ip; type: organism-based; settings: in vivo
[9] = target: T2, Glutamate NMDA receptor; GRIN1/GRIN2A; test: (§1) Antagonist activity at human GluN1/GluN2A receptor expressed in HEK293 cells assessed as inhibition of L-glutamate/glycine-induced steady state conditions of the current response at holding - 60 mV potential by measuring onset time constant at 1 to 100 uM incubated for 2 min followed by compound washout measured by patch clamp electrophysiology analysis; type: cell-based; settings: filed as antagonist, dose 1-100 µM
[10] = Toxicity in male Wistar rat assessed as effect on pre-pulse inhibition of acoustic startle response induced deficit at 1 to 10 mg/kg, ip by prepulse inhibition test; type: organism-based; settings: in vivo, dose 1-10 mg/kg
[11] = Toxicity in male Wistar rat assessed as locomotion at 1 to 10 mg/kg, ip incubated for 15 min by open field test; type: organism-based; settings: in vivo, 0.25 h, dose 1-10 mg/kg
[12] = Toxicity in male Wistar rat assessed as no observed adverse effect level (NOAEL) at 10 mg/kg, ip; type: organism-based; settings: in vivo
[13] = target: T1, Glutamate NMDA receptor; GRIN1/GRIN2B; test: as §1, with “GluN1/GluN2B” for “GluN1/GluN2A”; type: cell-based; settings: filed as antagonist, dose 1-100 µM
[14] = target: T2, Glutamate NMDA receptor; GRIN1/GRIN2A; test: Antagonist activity at human GluN1/GluN2A receptor expressed in HEK293 cells assessed as inhibition of offset time constant at -60 mV membrane potential by patch clamp electrophysiology analysis relative to control; type: cell-based; settings: filed as antagonist, dose 1.0 µM
[15] = target: T1, Glutamate NMDA receptor; GRIN1/GRIN2B; test: as §1, with “GluN1/GluN2B” for “GluN1/GluN2A”, “offset” for “onset”; type: cell-based; settings: filed as antagonist, dose 1-100 µM
[16] = target: T2, Glutamate NMDA receptor; GRIN1/GRIN2A; test: as §1, with “offset” for “onset”; type: cell-based; settings: filed as antagonist, dose 1-100 µM
[17] = Toxicity in male Wistar rat assessed as loss of activity at 20 mg/kg, ip; type: organism-based; settings: in vivo
[18] = Inhibition of human recombinant AChE measured by Ellman's method
[19] = Toxicity in male Wistar rat assessed as hyperlocomotion at 0.2 mg/kg, ip incubated for 10 min by open field test; type: organism-based; settings: in vivo
[20] = Toxicity in male Wistar rat assessed as effect on pre-pulse inhibition of acoustic startle response induced deficit at 0.3 mg/kg, ip mg/kg by prepulse inhibition test; type: organism-based; settings: in vivo
[21] = target: T2, Glutamate NMDA receptor; GRIN1/GRIN2A; test: Antagonist activity at human GluN1/GluN2A receptor expressed in HEK293 cells assessed as inhibition of […] response at 1 uM onset measured by patch clamp electrophysiology analysis; type: cell-based; settings: filed as antagonist
[22] = test system: Rattus norvegicus; test: In vivo neuroprotective activity in NMDA-induced hippocampal lesion male Wistar rat model assessed as decrease in damage score at 30 uM; type: functional, organism-based

Structure (SMILES) | inhibition ([1]; filed as antagonist) [%] | inhibition ([2]; filed as antagonist) [%] | IC50 at 24 h [3] [µM] | inhibition [2] [%] | further results
c1ccc2c(c1)CCc1ccccc1C2NC1CC1 | 53.6 | 40.1 | 177 |  | 
C1=Cc2ccccc2C(N2CCCC2)c2ccccc21 | 85.5 | 48.6 | > 900 |  | 
CNC1(c2ccccc2Cl)CCCCC1=O (stereo not drawn) [KETAMINE] |  |  |  |  | IC50 [4]: 0.51 µM; IC50 [5]: 0.5 µM; IC50 [6]: 53.3 µM; IC50 [7]: 15.2 µM
c1ccc2c(c1)CCc1ccccc1C2N1CCCC1 | 62.1 | 49.8 | 97.7 |  | 
CC(C)CNC1c2ccccc2C=Cc2ccccc21.Cl | 91.8 | 93.2 | 102 |  | Activity [8]: Toxic; Activity [9]: Active; Activity [10]: Toxic; IC50 [6]: 22.4 µM; Activity [11]: Non-toxic; IC50 [7]: 11.7 µM; Activity [12]: Non-toxic; Activity [13]: Active; inhibition [14]: 99%; Activity [15]: Active; Compound Exhibited Slower Time Constant Offset Than 3L; Activity [16]: Active; Compound Exhibited Slower Time Constant Offset Than 3L; Activity [17]: Toxic
c1ccc2c(c1)CCc1ccccc1C2N1CCCCC1 |  |  | 73.8 | 5.4 | inhibition [1]: 5.2%
CNC1c2ccccc2CCc2ccccc21 | 71 | 82.3 | 410 |  | 
OCCNC1c2ccccc2C=Cc2ccccc21 | 48.8 |  | 333 | 38.2 | 
CC(C)NC1c2ccccc2CCc2ccccc21 | 76.9 | 52.2 | 263 |  | 
c1ccc2c(c1)CCc1ccccc1C2NC1CCCCC1 | 86 | 79.4 | 85 |  | IC50 [18]: 14.4 µM
C1=Cc2ccccc2C(NC2CC2)c2ccccc21 | 57.2 | 45 | 260 |  | 
COCCNC1c2ccccc2CCc2ccccc21 | 66.6 |  | 385 | 34.9 | 
C1=Cc2ccccc2C(N2CCOCC2)c2ccccc21 | 57.6 |  | 165 | 31.9 | 
C[C@]12N[C@H](Cc3ccccc31)c1ccccc12 [DIZOCILPINE] |  |  |  |  | Activity [19]: Toxic; Activity [20]: Toxic
CC(C)NC1c2ccccc2C=Cc2ccccc21 | 76 | 75.6 | 251 |  | 
C1=Cc2ccccc2C(N2CCCCC2)c2ccccc21 | 58.4 |  | 381 | 29.9 | 
CCNC1c2ccccc2C=Cc2ccccc21 | 59.9 |  | 498 | 39.9 | 
COCCNC1c2ccccc2C=Cc2ccccc21 | 60 |  | 390 | 35.6 | 
c1ccc2c(c1)CCc1ccccc1C2N1CCOCC1 |  |  | 95.2 | 6.78 | inhibition [1]: 3.43%
CCCCNC1c2ccccc2CCc2ccccc21 | 85.8 | 76.4 | 128 |  | 
CC(C)CNC1c2ccccc2CCc2ccccc21 | 91.6 | 76.8 | 92.4 |  | 
CCN(CC)C1c2ccccc2CCc2ccccc21 | 75 | 68.4 | 86.4 |  | 
Cl.OCCNC1c2ccccc2CCc2ccccc21 | 49.7 | 48 | 720 |  | Activity [8]: Toxic; Activity [9]: Active; TIME [21]: 0.000112 h; Activity [10]: Toxic; IC50 [6]: 276 µM; Activity [11]: Non-toxic; IC50 [7]: 215 µM; Activity [12]: Non-toxic; Activity [13]: Active; Activity [22]: Active; inhibition [14]: 99%; Activity [17]: Toxic
CNC1c2ccccc2C=Cc2ccccc21 | 68.9 | 54.3 | 299 |  | 
CCNC1c2ccccc2CCc2ccccc21 | 51.8 |  | 364 | 34 | 
CCN1CCN(C2c3ccccc3CCc3ccccc32)CC1 |  |  | 147 | 7.64 | inhibition [1]: 5.22%
C1=Cc2ccccc2C(NC2CCCCC2)c2ccccc21 | 92.4 | 92.1 | 81.3 |  | IC50 [18]: 8.5 µM
CN1CCN(C2c3ccccc3CCc3ccccc32)CC1 |  |  | 122 | 9.7 | inhibition [1]: 9.49%
CCCCNC1c2ccccc2C=Cc2ccccc21 | 79.2 | 81.1 | 101 |  | 
